# From US20100040621A1, “Novel polpeptide and use thereof” (TAKEDA PHARMACEUTICAL COMPANY LIMITED, priority 2005, published 2010)
# No end group written: not given here.
# Legend:
# posterior pituitary = test: AVP secretion in vitro, static incubation of posterior pituitary; format: cell-based; conditions: rat posterior pituitary in vitro, same conditions (10^−6 M)
# Procedure: (§1) Blood samples were taken 15 minutes after the injection of NERPs. Plasma AVP was measured using an RIA kit (manufactured by Mitsubishi). Six pieces of PVN and SON were taken from the rat hypothalamus. Each nucleus was preincubated for an hour at 37° C. in medium 199 (25 mM HEPES buffer, pH 7.4, 2.5% fetal calf serum, 2.5% bovine serum and 1% penicillin-streptomycin) equilibrated under 95% O2 (n=4 wells/group). These nuclei were sequentially stimulated 3 times each for 5 minutes, using one of NERP-1 (10^−6 M), NERP-1 (10^−6 M)+AT-II (10^−6 M) and AT-II (10^−6 M). Stimulation periods were separated by 5-minute recovery periods. Similarly, these nuclei were stimulated using one of NERP-2 (10^−6 M), NERP-2 (10^−6 M)+AT-II (10^−6 M), NERP-1-Gly (10^−6 M) and NERP-2-Gly (10^−6 M). After they were thus stimulated, KCl of 6×10^−2 M was added to confirm depolarization-induced secretion. The two pieces from rat posterior pituitary were stimulated by NERPs and AT-II under the same conditions as described above. Aliquots of the medium were provided for RIA to measure AVP. The experiment was replicated 5 times.
# SON neurons = format: cell-based, rat; conditions: for GABAergic IPSC in the SON neurons: holding potential −20 mV
# AVP secretion = AVP secretion in vivo after ICV administration (plasma AVP by RIA); conditions: rat; for AT-II induced AVP release: ICV preadministration, AT-II (1 nmol/10 μl) ICV 5 minutes after, plasma AVP; for AVP release induced by high salt administration: ICV, hypertonic saline (850 mM NaCl/10 μl) ICV 5 minutes after, plasma AVP 15 minutes after injection
# Procedure: NERP-1, NERP-1-Gly, NERP-2 or NERP-2-Gly was ICV-administered to rats, followed by ICV administration of hypertonic saline (850 mM NaCl/10 μl) or angiotensin II (AT-II) (1 nmol/10 μl) 5 minutes after.
# as §1
# PVN and SON = test: AVP secretion in vitro, static incubation of PVN and SON; format: cell-based; conditions: rat nuclei in vitro; for basal AVP secretion, static incubation of PVN and SON: peptide 10^−6 M; for AT-II-induced AVP secretion, static incubation of PVN and SON: peptide 10^−6 M + AT-II 10^−6 M
# Procedure: as §1
# [1] = test system: orexin knockout mice and wild-type mice; test: Locomotor stimulating activity in mice after ICV administration; format: in vivo, mouse; conditions: ICV 5 nmol/2 μl saline, counts summed 30 to 120 minutes after administration
# Procedure: Movement of mice given an ICV administration of NERP-2 (5 nmol/2 μl saline) or vehicle was measured in sound- and light-proof cages equipped with an infrared detector (Muromachi Co. Ltd., Tokyo, Japan) as previously described according to the method described in Endocrinology, 144, 4729-4733 (2003). Locomotor activity counts were measured every 15 minutes and summed for the period of 30 minutes to 120 minutes after the administration.
# free-feeding rats = test: Feeding experiments in rats after ICV injection; format: in vivo, rat
# Procedure: (§2) To assess feeding, NERP-1, NERP-2 or NERP-2-Gly (0.1-5 nmol/10 μl) was ICV-injected to rats (n=15 per group) at 09:30. Anti-orexin A IgG (0.25 μg/10 μl, Santa Cruz) and anti-orexin B IgG (0.25 μg/10 μl, Santa Cruz) or anti-MCH IgG (0.5 μg/10 μl, Phoenix) was ICV-injected at 09:00 to rats (n=12 per group). In all cases, IgG was injected […] before the NERP-2 administration. Food intake was monitored for an hour. In mouse experiments, NERP-2 (1 nmol/2 μl saline) or MCH (1 nmol/2 μl saline) was ICV-injected to orexin knockout mice (Cell, 92, 573-585 (1998)) and wild-type littermates (n=5 per group, 4 month-old male), then one-hour food intake was measured. Orexin knockout mice were prepared by targeted mutation in ES cells (Cell, 92, 573-585 (1998)).
# [2] = test system: orexin knockout mice and wild-type littermates; test: One-hour food intake in orexin knockout mice and wild-type littermates after ICV injection; format: in vivo, mouse; conditions: ICV 1 nmol/2 μl saline
# Procedure: as §2
Substance,AVP secretion from the posterior pituitary (posterior pituitary),"IPSCs induced by NERP-1 on application of hemoglobin (Hb) (SON neurons; Hb 10^−6 M, NO scavenger, added 5 minutes after NERP-1)","presynaptic GABAergic currents induced by NERP-1 in presence of tetrodotoxin (SON neurons; TTX 10^−6 M, Na+ channel blocker, added 5 minutes after NERP-1)","amplitude of IPSC (SON neurons; rat SON slice, patch-clamp)","frequency of IPSC (SON neurons; rat SON slice, patch-clamp)","GABAergic IPSC in the SON neurons (SON neurons; rat slice, patch-clamp)","EPSC in the SON neurons (SON neurons; rat slice, patch-clamp, holding potential −70 mV)",AT-II induced AVP release (AVP secretion),AVP release induced by high salt administration (AVP secretion),"basal AVP secretion, static incubation of PVN and SON (PVN and SON)","AT-II-induced AVP secretion, static incubation of PVN and SON (PVN and SON)",total locomotor activity in the orexin knockout mice [1],total locomotor activity in the wild-type mice [1],"food intake during the light phase (free-feeding rats; free-feeding rats, ICV 0.1-5 nmol/10 μl, one-hour intake)","lowest effective dose for increased food intake (free-feeding rats; free-feeding rats, ICV, light phase) [nmol]",behavior compared to the control group (free-feeding rats; rats receiving ICV injection),"duration of orexigenic effect after the ICV injection (free-feeding rats; rats, ICV)",food intake in orexin knockout mice [2],food intake in wild-type control mice [2]
"NERP-1: VGF-derived peptide; human, rat and mouse sequences are SEQ ID NO: 4, 5 and 6; rat form an amidated 25-amino acid peptide (RPESALLGGSEAGERLLQQGLAQVEA; Neuroendocrine regulatory peptide-1; UniProt O15240 281-306, looked up) [VGF-derived peptide; rat form an amidated 25-amino acid peptide]",suppressed,not affected,remained unchanged,did not increase,increased,increased,did not increase,suppressed,dose-dependently suppressed,suppressed,suppressed,–,–,–,–,–,–,–,–
"NERP-2: VGF-derived peptide; human, rat and mouse sequences are SEQ ID NO: 7, 8 and 9; rat form an amidated 38-amino acid peptide (QAEATRQAAAQEERLADLASDLLLQYLLQGGARQRGLG; also: rat form amidated, species of this chain not given here; UniProt O15240 310-347, looked up) [VGF-derived peptide; rat form an amidated 38-amino acid peptide]",–,–,–,–,–,increased,–,inhibited,inhibited,suppressed,suppressed,did not stimulate,stimulated,dose-dependently increased,0.1,remained alert and showed no unusual behavior,did not last longer than an hour,did not stimulate,stimulated
